Laboratory results taken from ChEMBL document CHEMBL3045835, “Comparative study of conventional and microwave-assisted synthesis of some Schiff bases and their potential as antimicrobial agents” (2012).
≈ marks a conversion by molar mass, not a printed value.

Legend:
Type in all cases: functional
Staphylococcus aureus [1] = test: Antibacterial activity against Staphylococcus aureus MTCC 1430 at 100 ug/ml after 18 hr by cup-plate method; details: MTCC 1430, 18 h, read-out: DIZ
Penicillium chrysogenum [2] = test: Antifungal activity against Penicillium chrysogenum MTCC 161 at 200 ug/ml after 18 hr by cup-plate method; details: MTCC 161, 18 h, read-out: DIZ
Bacillus subtilis [3] = test: Antibacterial activity against Bacillus subtilis MTCC 441 at 200 ug/ml after 18 hr by cup plate method; details: MTCC 441, 18 h, read-out: DIZ
Staphylococcus aureus [4] = test: Antibacterial activity against Staphylococcus aureus MTCC 1430 at 1500 ug/ml after 18 hr by cup-plate method; details: MTCC 1430, 18 h, read-out: DIZ
Aspergillus niger [5] = test: Antifungal activity against Aspergillus niger MTCC 2546 at 1500 ug/ml after 18 hr by cup-plate method; details: MTCC 2546, 18 h, read-out: DIZ
Pseudomonas fluorescens [6] = test: Antibacterial activity against Pseudomonas fluorescens MTCC 2421 after 24 hr by broth dilution method; details: MTCC 2421, 24 h
Penicillium chrysogenum [7] = test: Antifungal activity against Penicillium chrysogenum MTCC 161 at 500 ug/ml after 18 hr by cup-plate method; details: MTCC 161, 18 h, read-out: DIZ
Aspergillus niger [8] = test: Antifungal activity against Aspergillus niger MTCC 2546 after 24 hr by broth dilution method; details: MTCC 2546, 24 h
Penicillium chrysogenum [9] = test: Antifungal activity against Penicillium chrysogenum MTCC 161 at 1500 ug/ml after 18 hr by cup-plate method; details: MTCC 161, 18 h, read-out: DIZ
Bacillus pumilus [10] = test: Antibacterial activity against Bacillus pumilus MTCC 1456 at 200 ug/ml after 18 hr by cup-plate method; details: MTCC 1456, 18 h, read-out: DIZ
Bacillus pumilus [11] = test: Antibacterial activity against Bacillus pumilus MTCC 1456 at 100 ug/ml after 18 hr by cup-plate method; details: MTCC 1456, 18 h, read-out: DIZ
Escherichia coli [12] = test: Antibacterial activity against Escherichia coli MTCC 1573 after 24 hr by broth dilution method; details: MTCC 1573, 24 h
Penicillium chrysogenum [13] = test: Antifungal activity against Penicillium chrysogenum MTCC 161 at 1000 ug/ml after 18 hr by cup-plate method; details: MTCC 161, 18 h, read-out: DIZ
Bacillus pumilus [14] = test: Antibacterial activity against Bacillus pumilus MTCC 1456 after 24 hr by broth dilution method; details: MTCC 1456, 24 h
Aspergillus niger [15] = test: Antifungal activity against Aspergillus niger MTCC 2546 at 100 ug/ml after 18 hr by cup-plate method; details: MTCC 2546, 18 h, read-out: DIZ
Escherichia coli [16] = test: Antibacterial activity against Escherichia coli MTCC 1573 at 500 ug/ml after 18 hr by cup-plate method; details: MTCC 1573, 18 h, read-out: DIZ
Bacillus subtilis [17] = test: Antibacterial activity against Bacillus subtilis MTCC 441 at 500 ug/ml after 18 hr by cup plate method; details: MTCC 441, 18 h, read-out: DIZ
Bacillus subtilis [18] = test: Antibacterial activity against Bacillus subtilis MTCC 441 after 24 hr by broth dilution method; details: MTCC 441, 24 h
Pseudomonas aeruginosa [19] = test: Antibacterial activity against Pseudomonas aeruginosa MTCC 424 after 24 hr by broth dilution method; details: MTCC 424, 24 h
Aspergillus niger [20] = test: Antifungal activity against Aspergillus niger MTCC 2546 at 1000 ug/ml after 18 hr by cup-plate method; details: MTCC 2546, 18 h, read-out: DIZ
Pseudomonas fluorescens [21] = test: Antibacterial activity against Pseudomonas fluorescens MTCC 2421 at 1000 ug/ml after 18 hr by cup-plate method; details: MTCC 2421, 18 h, read-out: DIZ
Penicillium chrysogenum [22] = test: Antifungal activity against Penicillium chrysogenum MTCC 161 after 24 hr by broth dilution method; details: MTCC 161, 24 h
Micrococcus luteus = test: Antibacterial activity against Micrococcus luteus MTCC 1538 at 1500 ug/ml after 18 hr by cup-plate method; details: MTCC 1538, 18 h, read-out: DIZ
Bacillus subtilis [23] = test: Antibacterial activity against Bacillus subtilis MTCC 441 at 1500 ug/ml after 18 hr by cup plate method; details: MTCC 441, 18 h, read-out: DIZ
Bacillus pumilus [24] = test: Antibacterial activity against Bacillus pumilus MTCC 1456 at 1000 ug/ml after 18 hr by cup-plate method; details: MTCC 1456, 18 h, read-out: DIZ
Bacillus pumilus [25] = test: Antibacterial activity against Bacillus pumilus MTCC 1456 at 1500 ug/ml after 18 hr by cup-plate method; details: MTCC 1456, 18 h, read-out: DIZ
Pseudomonas aeruginosa [26] = test: Antibacterial activity against Pseudomonas aeruginosa MTCC 424 at 1500 ug/ml after 18 hr by cup-plate method; details: MTCC 424, 18 h, read-out: DIZ

Compound: Clc1ccc(/N=C/c2cccs2)cc1
- zone of inhibition at 100 µg/mL (Staphylococcus aureus [1]): 12 mm
- zone of inhibition at 200 µg/mL (Penicillium chrysogenum [2]): 14 mm
- zone of inhibition at 200 µg/mL (Bacillus subtilis [3]): 12 mm
- zone of inhibition at 1500 µg/mL (Staphylococcus aureus [4]): 18 mm
- zone of inhibition at 1500 µg/mL (Aspergillus niger [5]): 18 mm
- MIC (Pseudomonas fluorescens [6]): 300 µg/mL (≈ 1350 µM)
- zone of inhibition at 500 µg/mL (Penicillium chrysogenum [7]): 16 mm
- MIC (Aspergillus niger [8]): 400 µg/mL (≈ 1800 µM)
- zone of inhibition at 1500 µg/mL (Penicillium chrysogenum [9]): 19 mm
- zone of inhibition at 200 µg/mL (Bacillus pumilus [10]): 15 mm
- zone of inhibition at 100 µg/mL (Bacillus pumilus [11]): 13 mm
- MIC (Escherichia coli [12]): 200 µg/mL (≈ 902 µM)
- zone of inhibition at 1000 µg/mL (Penicillium chrysogenum [13]): 17 mm
- MIC (Bacillus pumilus [14]): 200 µg/mL (≈ 902 µM)
- zone of inhibition at 100 µg/mL (Aspergillus niger [15]): 10 mm
- zone of inhibition at 500 µg/mL (Escherichia coli [16]): 16 mm
- zone of inhibition at 500 µg/mL (Bacillus subtilis [17]): 14 mm
- MIC (Bacillus subtilis [18]): 400 µg/mL (≈ 1800 µM)
- MIC (Pseudomonas aeruginosa [19]): 300 µg/mL (≈ 1350 µM)
- zone of inhibition at 1000 µg/mL (Aspergillus niger [20]): 17 mm
- zone of inhibition at 1000 µg/mL (Pseudomonas fluorescens [21]): 18 mm
- MIC (Penicillium chrysogenum [22]): 300 µg/mL (≈ 1350 µM)
- zone of inhibition at 1500 µg/mL (Micrococcus luteus): 24 mm
- zone of inhibition at 1500 µg/mL (Bacillus subtilis [23]): 21 mm
- zone of inhibition at 1000 µg/mL (Bacillus pumilus [24]): 18 mm
- zone of inhibition at 1500 µg/mL (Bacillus pumilus [25]): 20 mm
- zone of inhibition at 1500 µg/mL (Pseudomonas aeruginosa [26]): 19 mm
